The text below walks through data of patent US11504382B2, “Tricyclic inhibitors of Hepatitis B virus” (Antios Therapeutics, Inc., priority 2018, dated 2022).

As usually defined, the EC50 is the concentration at which the effect is half-maximal.

One experiment deals with HBV. Nature of the experiment: HBV inhibition assay in HepAD38 cells (extracellular HBV DNA by direct qPCR). Format: cell-based, Hepatitis B virus. The note with it: Hepatitis B virus, 0.1 μM, 96 hours, relative to non-treated reference, read-out: Anti HBV Activity (conc μM). A general note: Quantitative PCR measures a nucleic acid by following its amplification.
As to `Cn1cc2c(c1C(=O)Nc1cc(F)c(F)c(F)c1)OCC1CN(c3cnccn3)CC1NS2(=O)=O` (stereo not drawn) [Example E82, cis-7-methyl-2-(pyrazin-2-yl)-N-(3,4,5-trifluorophenyl)-2,3,3a,4,10,10a-hexahydro-1H,7H-dipyrrolo[3,4-b:3′,4′-f][1,4,5]oxathiazocine-8-carboxamide 5,5-dioxide], the inhibition at 0.1 µM was above 50%. Same read-out and setting: as for `Cc1noc(N2CC3COc4c(cn(C)c4C(=O)Nc4cc(F)c(F)c(F)c4)S(=O)(=O)NC3C2)n1` (stereo not drawn) [Example E83, cis-7-methyl-2-(3-methyl-1,2,4-oxadiazol-5-yl)-N-(3,4,5-trifluorophenyl)-2,3,3a,4,10,10a-hexahydro-1H,7H-dipyrrolo[3,4-b:3′,4′-f][1,4,5]oxathiazocine-8-carboxamide 5,5-dioxide], the figure is above 50%.

The same experiment, now with this note: Hepatitis B virus, 96 hours, 8-point dose-response curve, read-out: HBV inh EC50.
For `Cc1noc(N2CC3COc4c(cn(C)c4C(=O)Nc4cc(F)c(F)c(F)c4)S(=O)(=O)NC3C2)n1` (stereo not drawn) [Example E83, cis-7-methyl-2-(3-methyl-1,2,4-oxadiazol-5-yl)-N-(3,4,5-trifluorophenyl)-2,3,3a,4,10,10a-hexahydro-1H,7H-dipyrrolo[3,4-b:3′,4′-f][1,4,5]oxathiazocine-8-carboxamide 5,5-dioxide], the half-maximal effective concentration (EC50) is below 1000 nM. On the same count and under the same terms, as for `Cc1nnc(C(=O)N2CC3NS(=O)(=O)c4cn(C)c(C(=O)Nc5ccc(F)c(C)c5)c4OCC3(C)C2)o1` (stereo not drawn) [Example E86, cis-N-(4-fluoro-3-methylphenyl)-7,10a-dimethyl-2-(5-methyl-1,3,4-oxadiazole-2-carbonyl)-2,3,3a,4,10,10a-hexahydro-1H,7H-dipyrrolo[3,4-b:3′,4′-f][1,4,5]oxathiazocine-8-carboxamide 5,5-dioxide], the figure is below 1000 nM.

Regarding `Cc1cc(NC(=O)c2c3c(cn2C)S(=O)(=O)NC2CN(C(=O)c4ncoc4C)CC2(C)CO3)ccc1F` (stereo not drawn) [Example E87, cis-N-(4-fluoro-3-methylphenyl)-7,10a-dimethyl-2-(5-methyloxazole-4-carbonyl)-2,3,3a,4,10,10a-hexahydro-1H,7H-dipyrrolo[3,4-b:3′,4′-f][1,4,5]oxathiazocine-8-carboxamide 5,5-dioxide], the EC50 was below 1000 nM. Still for that read-out and setting: as for `Cc1cc(NC(=O)c2c3c(cn2C)S(=O)(=O)NC2CN(C(=O)C4(C)CCCO4)CC2(C)CO3)ccc1F` (stereo not drawn) [Example E88, cis-N-(4-fluoro-3-methylphenyl)-7,10a-dimethyl-2-(2-methyltetrahydrofuran-2-carbonyl)-2,3,3a,4,10,10a-hexahydro-1H,7H-dipyrrolo[3,4-b:3′,4′-f][1,4,5]oxathiazocine-8-carboxamide 5,5-dioxide], the figure is below 1000 nM; as for `Cc1cc(NC(=O)c2c3c(cn2C)S(=O)(=O)NC2CN(C(=O)C4(C)COC4)CC2(C)CO3)ccc1F` (stereo not drawn) [Example E89, cis-N-(4-fluoro-3-methylphenyl)-7,10a-dimethyl-2-(3-methyloxetane-3-carbonyl)-2,3,3a,4,10,10a-hexahydro-1H,7H-dipyrrolo[3,4-b:3′,4′-f][1,4,5]oxathiazocine-8-carboxamide 5,5-dioxide], below 1000 nM; as for `Cc1cc(NC(=O)c2c3c(cn2C)S(=O)(=O)NC2CN(C(=O)C45CC(CO4)C5)CC2(C)CO3)ccc1F` (stereo not drawn) [Example E90, cis-2-(2-oxabicyclo[2.1.1]hexane-1-carbonyl)-N-(4-fluoro-3-methylphenyl)-7,10a-dimethyl-2,3,3a,4,10,10a-hexahydro-1H,7H-dipyrrolo[3,4-b:3′,4′-f][1,4,5]oxathiazocine-8-carboxamide 5,5-dioxide], below 1000 nM.

As for `Cc1nnc(C(=O)N2C[C@H]3COc4c(cn(C)c4C(=O)Nc4cc(F)c(F)c(F)c4)S(=O)(=O)N[C@H]3C2)o1` [Example E97, (3aR,10aR)-7-methyl-2-(5-methyl-1,3,4-oxadiazole-2-carbonyl)-N-(3,4,5-trifluorophenyl)-2,3,3a,4,10,10a-hexahydro-1H,7H-dipyrrolo[3,4-b:3′,4′-f][1,4,5]oxathiazocine-8-carboxamide 5,5-dioxide], the EC50 is below 1000 nM.

Turning to `Cc1nnc(C(=O)N2C[C@H]3COc4c(cn(C)c4C(=O)Nc4ccc(F)c(C)c4)S(=O)(=O)N[C@H]3C2)o1` [Example E98, (3aR,10aR)—N-(4-fluoro-3-methylphenyl)-7-methyl-2-(5-methyl-1,3,4-oxadiazole-2-carbonyl)-2,3,3a,4,10,10a-hexahydro-1H,7H-dipyrrolo[3,4-b:3′,4′-f][1,4,5]oxathiazocine-8-carboxamide 5,5-dioxide], the concentration for a half-maximal effect (EC50) was below 1000 nM. Same read-out and setting: as for `Cc1nnc(C(=O)N2C[C@H]3COc4c(cn(C)c4C(=O)Nc4ccc(F)c(Cl)c4)S(=O)(=O)N[C@H]3C2)o1` [Example E99, (3aR,10aR)—N-(3-chloro-4-fluorophenyl)-7-methyl-2-(5-methyl-1,3,4-oxadiazole-2-carbonyl)-2,3,3a,4,10,10a-hexahydro-1H,7H-dipyrrolo[3,4-b:3′,4′-f][1,4,5]oxathiazocine-8-carboxamide 5,5-dioxide], the figure is below 1000 nM; as for `Cc1cc(NC(=O)c2c3c(cn2C)S(=O)(=O)N[C@H]2CN(C(=O)[C@H]4CCCO4)C[C@H]2CO3)ccc1F` [Example E100, (3aR,10aR)—N-(4-fluoro-3-methylphenyl)-7-methyl-2-((R)-tetrahydrofuran-2-carbonyl)-2,3,3a,4,10,10a-hexahydro-1H,7H-dipyrrolo[3,4-b:3′,4′-f][1,4,5]oxathiazocine-8-carboxamide 5,5-dioxide], below 1000 nM; as for `Cc1cc(NC(=O)c2c3c(cn2C)S(=O)(=O)N[C@H]2CN(C(=O)[C@@H]4CCCO4)C[C@H]2CO3)ccc1F` [Example E101, (3aR,10aR)—N-(4-fluoro-3-methylphenyl)-7-methyl-2-((S)-tetrahydrofuran-2-carbonyl)-2,3,3a,4,10,10a-hexahydro-1H,7H-dipyrrolo[3,4-b:3′,4′-f][1,4,5]oxathiazocine-8-carboxamide 5,5-dioxide], below 1000 nM.

For `Cn1cc2c(c1C(=O)Nc1cc(F)c(F)c(F)c1)OC[C@@H]1CN(C(=O)c3nnc(N)o3)C[C@@H]1NS2(=O)=O` [Example E102, (3aR,10aR)-2-(5-amino-1,3,4-oxadiazole-2-carbonyl)-7-methyl-N-(3,4,5-trifluorophenyl)-2,3,3a,4,10,10a-hexahydro-1H,7H-dipyrrolo[3,4-b:3′,4′-f][1,4,5]oxathiazocine-8-carboxamide 5,5-dioxide], the EC50 is below 1000 nM.

As to `Cc1noc(C(=O)N2C[C@H]3COc4c(cn(C)c4C(=O)Nc4ccc(F)c(C)c4)S(=O)(=O)N[C@H]3C2)n1` [Example E103, (3aR,10aR)—N-(4-fluoro-3-methylphenyl)-7-methyl-2-(3-methyl-1,2,4-oxadiazole-5-carbonyl)-2,3,3a,4,10,10a-hexahydro-1H,7H-dipyrrolo[3,4-b:3′,4′-f][1,4,5]oxathiazocine-8-carboxamide 5,5-dioxide], the EC50 is below 1000 nM. On the same count and under the same terms, as for `Cc1cc(NC(=O)c2c3c(cn2C)S(=O)(=O)N[C@H]2CN(C(=O)c4cocn4)C[C@H]2CO3)ccc1F` [Example E104, (3aR,10aR)—N-(4-fluoro-3-methylphenyl)-7-methyl-2-(oxazole-4-carbonyl)-2,3,3a,4,10,10a-hexahydro-1H,7H-dipyrrolo[3,4-b:3′,4′-f][1,4,5]oxathiazocine-8-carboxamide 5,5-dioxide], the figure is below 1000 nM. The same measure, in the same setting: as for `Cc1cc(NC(=O)c2c3c(cn2C)S(=O)(=O)N[C@H]2CN(C(=O)c4cnon4)C[C@H]2CO3)ccc1F` [Example E105, (3aR,10aR)—N-(4-fluoro-3-methylphenyl)-7-methyl-2-(1,2,5-oxadiazole-3-carbonyl)-2,3,3a,4,10,10a-hexahydro-1H,7H-dipyrrolo[3,4-b:3′,4′-f][1,4,5]oxathiazocine-8-carboxamide 5,5-dioxide], the figure is below 1000 nM; as for `Cn1cc2c(c1C(=O)Nc1cc(F)c(F)c(F)c1)OC[C@@H]1CN(C(=O)c3cocn3)C[C@@H]1NS2(=O)=O` [Example E106, (3aR,10aR)-7-methyl-2-(oxazole-4-carbonyl)-N-(3,4,5-trifluorophenyl)-2,3,3a,4,10,10a-hexahydro-1H,7H-dipyrrolo[3,4-b:3′,4′-f][1,4,5]oxathiazocine-8-carboxamide 5,5-dioxide], below 1000 nM; as for `Cc1nnc(C(=O)N2C[C@H]3COc4c(cn(C)c4C(=O)Nc4ccc(F)c(C)c4)S(=O)(=O)N[C@H]3C2)s1` [Example E107, (3aR,10aR)—N-(4-fluoro-3-methylphenyl)-7-methyl-2-(5-methyl-1,3,4-thiadiazole-2-carbonyl)-2,3,3a,4,10,10a-hexahydro-1H,7H-dipyrrolo[3,4-b:3′,4′-f][1,4,5]oxathiazocine-8-carboxamide 5,5-dioxide], below 1000 nM.

Regarding `Cc1cc(NC(=O)c2c3c(cn2C)S(=O)(=O)N[C@H]2CN(C(=O)C4COC4)C[C@H]2CO3)ccc1F` [Example E108, (3aR,10aR)—N-(4-fluoro-3-methylphenyl)-7-methyl-2-(oxetane-3-carbonyl)-2,3,3a,4,10,10a-hexahydro-1H,7H-dipyrrolo[3,4-b:3′,4′-f][1,4,5]oxathiazocine-8-carboxamide 5,5-dioxide], the half-maximal effective concentration (EC50) is below 1000 nM. The same measure, in the same setting: as for `Cc1cc(NC(=O)c2c3c(cn2C)S(=O)(=O)N[C@H]2CN(C(=O)C45CC(CO4)C5)C[C@H]2CO3)ccc1F` [Example E109, (3aR,10aR)-2-(2-oxabicyclo[2.1.1]hexane-1-carbonyl)-N-(4-fluoro-3-methylphenyl)-7-methyl-2,3,3a,4,10,10a-hexahydro-1H,7H-dipyrrolo[3,4-b:3′,4′-f][1,4,5]oxathiazocine-8-carboxamide 5,5-dioxide], the figure is below 1000 nM; as for `Cc1cc(NC(=O)c2c3c(cn2C)S(=O)(=O)N[C@H]2CN(C(=O)C4CCO4)C[C@H]2CO3)ccc1F` (stereo partly drawn) [Example E110, (3aR,10aR)—N-(4-fluoro-3-methylphenyl)-7-methyl-2-(oxetane-2-carbonyl)-2,3,3a,4,10,10a-hexahydro-1H,7H-dipyrrolo[3,4-b:3′,4′-f][1,4,5]oxathiazocine-8-carboxamide 5,5-dioxide], below 1000 nM. Same read-out and setting: as for `Cc1cc(NC(=O)c2c3c(cn2C)S(=O)(=O)N[C@H]2CN(C(=O)C4(C)CCCO4)C[C@H]2CO3)ccc1F` (stereo partly drawn) [Example E111, (3aR,10aR)—N-(4-fluoro-3-methylphenyl)-7-methyl-2-(2-methyltetrahydrofuran-2-carbonyl)-2,3,3a,4,10,10a-hexahydro-1H,7H-dipyrrolo[3,4-b:3′,4′-f][1,4,5]oxathiazocine-8-carboxamide 5,5-dioxide], the figure is below 1000 nM.
